Earlier results in paper PMC4648373 (Cancer prevention research (Philadelphia, Pa.), 2015).
Read-outs that look alike come from different tables or passages of the source.

Columns and labels:
[1] = healthy human subjects
[2] = system: AR signaling; conditions: cell culture models, same concentration range
[3] = rodents

CC(C)=CC(=O)O[C@H]1Cc2cc3ccc(=O)oc3cc2OC1(C)C [D, Decursin]
conversion to DOH [1]: extensive conversion | anti-androgen (AR) signaling, cellular growth and survival activities [2]: identical anti-androgen signaling and anti-proliferative activities | conversion to DOH [3]: rapidly and extensively converted to DOH

C/C=C(/C)C(=O)O[C@H]1Cc2cc3ccc(=O)oc3cc2OC1(C)C [DA, decursinol angelate]
conversion to DOH [1]: extensive conversion | anti-androgen (AR) signaling, cellular growth and survival activities [2]: identical anti-androgen signaling and anti-proliferative activities | conversion to DOH [3]: rapidly and extensively converted to DOH

CC1(C)Oc2cc3oc(=O)ccc3cc2C[C@@H]1O [DOH, decursinol]
anti-androgen (AR) signaling, cellular growth and survival activities [2]: much less inhibitory
